Laboratory results taken from ChEMBL document CHEMBL1681705, “Optimisation of ITK inhibitors through successive iterative design cycles” (Bioorg Med Chem Lett, 2011).

Tests used:
[1] = target: T1, Tyrosine-protein kinase ITK/TSK (Homo sapiens, UniProt Q08881); assay: Inhibition of recombinant GST-tagged full-length ITK expressed in baculovirus expression system after 30 mins by scintillation proximity assay
T1 sequence (Q08881 whole entry): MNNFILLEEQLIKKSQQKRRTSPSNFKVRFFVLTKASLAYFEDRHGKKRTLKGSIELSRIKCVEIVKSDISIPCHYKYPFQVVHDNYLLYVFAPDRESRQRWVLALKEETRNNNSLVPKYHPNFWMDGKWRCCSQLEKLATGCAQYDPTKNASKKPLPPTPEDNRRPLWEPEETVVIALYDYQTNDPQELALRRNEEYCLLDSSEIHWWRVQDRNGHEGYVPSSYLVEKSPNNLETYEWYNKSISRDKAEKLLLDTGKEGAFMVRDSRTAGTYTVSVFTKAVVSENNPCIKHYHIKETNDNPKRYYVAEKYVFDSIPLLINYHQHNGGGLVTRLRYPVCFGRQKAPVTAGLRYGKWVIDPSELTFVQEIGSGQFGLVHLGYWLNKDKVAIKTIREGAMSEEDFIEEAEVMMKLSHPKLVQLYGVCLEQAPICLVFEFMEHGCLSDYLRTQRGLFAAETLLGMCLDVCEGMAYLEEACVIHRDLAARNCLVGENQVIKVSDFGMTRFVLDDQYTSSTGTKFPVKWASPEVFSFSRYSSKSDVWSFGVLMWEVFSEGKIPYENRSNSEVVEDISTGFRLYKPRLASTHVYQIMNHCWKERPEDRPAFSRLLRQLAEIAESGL

[2] = cells; details: Homo sapiens, T-cell
Description: Antiinflammatory activity in human CD4+ T cell assessed as inhibition of anti-CD3/anti-CD28-induced IL-2 production treated 30 mins before anti-CD3/anti-CD28 challenge measured after 48 hrs by electro-chemiluminescence assay

SMILES | IC50 [1] [nM] | IC50 [2] [nM]
CC(=O)N1CCC(Nc2ccc3[nH]nc(-c4cc5ccc(C)cc5[nH]4)c3c2)CC1 | 370 | 
Cc1ccc2cc(-c3n[nH]c4ccc(NS(=O)(=O)c5c(C)nn(C)c5C)cc34)[nH]c2c1 | 85 | 1000
CN(Cc1ccco1)C(=O)c1ccc2cc(-c3n[nH]c4ccccc34)[nH]c2c1 | 110 | 
CN(C)CCc1ccc2cc(-c3n[nH]c4cccnc34)[nH]c2c1 | 1000 | 
Cc1ccc2cc(-c3n[nH]c4ccc(NCC5CCCCC5)cc34)[nH]c2c1 | 1700 | 
Cc1ccc2cc(-c3n[nH]c4ccc(NS(=O)(=O)c5c(C)noc5C)cc34)[nH]c2c1 | 130 | 500
Cc1ccc2cc(-c3n[nH]c4ccc(NC(=O)NC5CCCCC5)cc34)[nH]c2c1 | 780 | 3200
Cc1ccc2cc(-c3n[nH]c4ccc(NCC(C)C)cc34)[nH]c2c1 | 860 | 
COc1ccc(S(=O)(=O)Nc2ccc3[nH]nc(-c4cc5ccc(C)cc5[nH]4)c3c2)cc1 |  | 700
COCCN(C)C(=O)c1ccc2cc(-c3n[nH]c4ccccc34)[nH]c2c1 | 70 | 2000
COCC(=O)Nc1ccc2[nH]nc(-c3cc4ccc(OC)cc4[nH]3)c2c1 |  | 500
Cc1ccc2cc(-c3n[nH]c4ccc(NS(=O)(=O)c5cccc(F)c5)cc34)[nH]c2c1 |  | 800
O=C(NCc1ccccc1)c1ccc2cc(-c3n[nH]c4ccccc34)[nH]c2c1 |  | 4100
Cc1ccc2cc(-c3n[nH]c4ccc(NC(=O)NCc5ccccc5)cc34)[nH]c2c1 | 750 | 
CN(C)CC#Cc1ccc2cc(-c3n[nH]c4cccnc34)[nH]c2c1 | 110 | 
CN(Cc1ccccc1)C(=O)c1ccc2cc(-c3n[nH]c4ccccc34)[nH]c2c1 | 60 | 9400
Cc1ccc2cc(-c3n[nH]c4ccc(NS(=O)(=O)c5ccccc5F)cc34)[nH]c2c1 |  | 1000
COCC#Cc1ccc2cc(-c3n[nH]c4cccnc34)[nH]c2c1 | 280 | 
Cc1ccc2cc(-c3n[nH]c4ccc(NC5CCC5)cc34)[nH]c2c1 | 620 | 
c1cnc2c(-c3cc4ccc(CC5CCC5)cc4[nH]3)n[nH]c2c1 | 350 | 
CC(=O)Nc1ccc2[nH]nc(-c3cc4ccc(C)cc4[nH]3)c2c1 |  | 1000
Cc1ccc2cc(-c3n[nH]c4ccc(NC5CCN(Cc6ccccc6)C5)cc34)[nH]c2c1 (stereo not given) | 30 | 350
Cc1ccc2cc(-c3n[nH]c4ccc(NCc5ccccc5)cc34)[nH]c2c1 | 530 | 
c1ccc(Cc2ccc3cc(-c4n[nH]c5cccnc45)[nH]c3c2)cc1 | 210 | 
Cc1ccc2cc(-c3n[nH]c4ccc(NS(=O)(=O)c5ccc(F)cc5)cc34)[nH]c2c1 |  | 2900
COc1cccc(S(=O)(=O)Nc2ccc3[nH]nc(-c4cc5ccc(C)cc5[nH]4)c3c2)c1 |  | 900
c1ccc2c(-c3cc4ccc(N5CCOCC5)cc4[nH]3)n[nH]c2c1 | 120 | 1200

SMILES | IC50 [1] [nM] | IC50 [2] [nM]
CCN(CC)C(=O)c1ccc2cc(-c3n[nH]c4ccccc34)[nH]c2c1 |  | 2100
Cc1ccc2cc(-c3n[nH]c4cc(NC(=O)c5ccccc5)ccc34)[nH]c2c1 | > 50000 | 
Cc1ccc2cc(-c3n[nH]c4ccc(NC(=O)Nc5ccccc5)cc34)[nH]c2c1 | 730 | 
Cc1ccc2cc(-c3n[nH]c4ccc(NC5CCN(C)CC5)cc34)[nH]c2c1 |  | 120
COCCc1ccc2cc(-c3n[nH]c4cccnc34)[nH]c2c1 | 70 | 600
CN(c1ccccc1)c1ccc2cc(-c3n[nH]c4ccccc34)[nH]c2c1 | 310 | 
C(#Cc1ccc2cc(-c3n[nH]c4cccnc34)[nH]c2c1)CCc1cccnc1 | 500 | 
Cc1ccc2cc(-c3n[nH]c4cc(NC(=O)C5CCCCC5)ccc34)[nH]c2c1 | > 50000 | 
Cc1ccc2cc(-c3n[nH]c4ccc(NC(=O)NCc5ccco5)cc34)[nH]c2c1 | 310 | 
NC(=O)Cc1ccc2cc(-c3n[nH]c4cccnc34)[nH]c2c1 | 100 | 1000
CCNC(=O)Nc1ccc2[nH]nc(-c3cc4ccc(C)cc4[nH]3)c2c1 | 83 | 600
c1cnc2c(-c3cc4ccc(CC5CCCCC5)cc4[nH]3)n[nH]c2c1 | 690 | 
Cc1ccc2cc(-c3n[nH]c4ccc(NS(=O)(=O)c5sc(C)nc5C)cc34)[nH]c2c1 | 190 | 2000
Cc1ccc2cc(-c3n[nH]c4ccc(NS(=O)(=O)c5cn(C)cn5)cc34)[nH]c2c1 | 26 | 400
Cc1ccc2cc(-c3n[nH]c4ccc(NC(=O)CN(C)C)cc34)[nH]c2c1 |  | 600
Cc1ccc2cc(-c3n[nH]c4ccc(NC(=O)C5CCOCC5)cc34)[nH]c2c1 | 260 | 
Cc1ccc2cc(-c3n[nH]c4ccc(NC5CCNCC5)cc34)[nH]c2c1 |  | 90
CC(C)CN(C)C(=O)c1ccc2cc(-c3n[nH]c4ccccc34)[nH]c2c1 |  | 1600
Cc1ccc2cc(-c3n[nH]c4ccc(NS(C)(=O)=O)cc34)[nH]c2c1 | 36 | 400
Cc1ccc2cc(-c3n[nH]c4ccc(NC(=O)c5ccco5)cc34)[nH]c2c1 | 530 | 
c1ccc2c(-c3cc4ccc(NCC5CCCCC5)cc4[nH]3)n[nH]c2c1 |  | 3800
Cc1ccc2cc(-c3n[nH]c4ccc(NS(=O)(=O)c5ccccc5)cc34)[nH]c2c1 |  | 400
O=C(NCC1CCCCC1)c1ccc2cc(-c3n[nH]c4ccccc34)[nH]c2c1 |  | 9500
COCCNc1ccc2cc(-c3n[nH]c4ccccc34)[nH]c2c1 | 260 | 1200
Cn1cncc1CNC(=O)c1ccc2cc(-c3n[nH]c4ccccc34)[nH]c2c1 | 20 | 
CCC(=O)Cc1ccc2cc(-c3n[nH]c4cccnc34)[nH]c2c1 | 100 | 1100
Cc1ccc2cc(-c3n[nH]c4ccc(NC(=O)Nc5c(C)noc5C)cc34)[nH]c2c1 | 72 | 300
